The numbers were not newly measured in US9790217B2, “Pyridinyloxy- and phenyloxy-pyrazolyl compounds” (Hoffmann-La Roche Inc., priority 2014, dated 2017), which cites them from elsewhere.

Data set [1] concerns rat model of chronic kidney disease. The following applies: rat CKD model, cited from earlier work.
Data set [2] deals with rats with experimental heart failure. The following applies: cited from earlier work.

For `N#Cc1ccc(C2CCCc3cncn32)cc1` (centres unmarked) [FAD286], the plasma aldosterone result in data set [1] (FAD286 4 weeks, spironolactone 4 and 8 weeks of treatment) is given as “reduced”. In data set [1], the “cardiac and aortic medial hypertrophy” value was “attenuated”; the “renal effects of angiotensin II and high salt (albuminuria, azotemia, renovascular hypertrophy, glomerular injury, PAI-1, osteopontin mRNA, tubulointerstitial fibrosis)” value is “prevented”. Moreover, in data set [2], the “blood pressure and cardiovascular function and structure” value is reported as “improved”; the “kidney function and morphology” value is on record as “improve”.
